Results reported in patent US10202351B2, “Pyrazolyl derivatives as pest control agents” (BAYER ANIMAL HEALTH GMBH, priority 2015, dated 2019).

Tests used:
Musca domestica = Musca domestica test; format: in vivo; details: adult houseflies, kill after 2 days
Procedure: (§1) Solvent: dimethyl sulfoxide
(§2) To produce a suitable preparation of active compound, 10 mg of active compound are mixed with 0.5 ml of dimethyl sulfoxide, and the concentrate is diluted with water to the desired concentration.
Vessels containing a sponge treated with sugar solution and the active ingredient formulation of the desired concentration are populated with 10 adult houseflies (Musca domestica)).
After 2 days, the kill in % is determined. 100% means that all of the flies have been killed; 0% means that none of the flies have been killed.

Ctenocephalides felis [1] = test: Ctenocephalides felis in vitro contact test with adult cat fleas; format: in vivo; details: application rate 5 μg/cm^2 (500 g/ha), after 48 h, dead or moribund fleas
Procedure: After the solvent has evaporated off, the tubes are populated with 5-10 adult cat fleas (Ctenocephalides felis), sealed with a perforated plastic lid and incubated in a horizontal position at room temperature and ambient humidity. After 48 h, efficacy is determined. To this end, the tubes are stood upright and the fleas are knocked to the base of the tube. Fleas which remain motionless at the base or move in an uncoordinated manner are considered to be dead or moribund.

Boophilus microplus = Boophilus microplus injection test; format: in vivo; details: after 7 days, laying of fertile eggs
Procedure: Solvent: dimethyl sulfoxide […] The animals are transferred into dishes and kept in a climate-controlled room. Efficacy is assessed after 7 days by laying of fertile eggs. Eggs which are not visibly fertile are stored in a climate-controlled cabinet until the larvae hatch after about 42 days.

Ctenocephalides felis [2] = test: Ctenocephalides felis oral test; format: in vivo; details: kill after 2 days
From the text: Solvent: dimethyl sulfoxide […] Dilution with citrated cattle blood gives the desired concentration. About 20 unfed adult cat fleas (Ctenocephalides felis) are placed into a chamber which is closed at the top and bottom with gauze. A metal cylinder whose bottom end is closed with parafilm is placed onto the chamber. The cylinder contains the blood/active ingredient formulation, which can be imbibed by the fleas through the parafilm membrane.

Lucilia cuprina = Lucilia cuprina test; format: in vivo; details: L1 larvae, kill after 2 days
Procedure: as §1, §2
About 20 L1 larvae of the Australian sheep blowfly (Lucilia cuprina) are transferred into a test vessel containing minced horsemeat and the active compound formulation of the desired concentration.
After 2 days, the kill in % is determined. 100% means that all the larvae have been killed; 0% means that no larvae have been killed.

Phaedon cochleariae = Phaedon cochleariae spray test; format: in vivo; details: larvae on Chinese cabbage leaf discs, after 7 days
Procedure: (§3) Solvent: 78.0 parts by weight of acetone • • 1.5 parts by weight of dimethylformamide Emulsifier: alkylaryl polyglycol ether […] To produce further test concentrations, the formulation is diluted with emulsifier-containing water. Discs of Chinese cabbage leaves (Brassica pekinensis) are sprayed with an active ingredient formulation of the desired concentration and, after drying, populated with larvae of the mustard beetle (Phaedon cochleariae).

Tetranychus urticae = Tetranychus urticae spray test, OP-resistant; format: in vivo; details: all stages on bean leaf discs, after 6 days
Procedure: Solvent: 78.0 parts by weight of acetone • • 1.5 parts by weight of dimethylformamide Emulsifier: alkylaryl polyglycol ether […] To produce further test concentrations, the formulation is diluted with emulsifier-containing water. Discs of bean leaves (Phaseolus vulgaris) infested with all stages of the greenhouse red spider mite (Tetranychus urticae) are sprayed with an active ingredient formulation of the desired concentration.

Spodoptera frugiperda = Spodoptera frugiperda spray test; format: in vivo; details: caterpillars on maize leaf discs, after 7 days
Procedure: as §3, with “Leaf discs” for “Discs”, “maize (Zea mays)” for “Chinese cabbage leaves (Brassica pekinensis)”, “compound” for “ingredient”, “caterpillars” for “larvae”, “armyworm (Spodoptera frugiperda).” for “mustard beetle (Phaedon cochleariae).”

Rhipicephalus sanguineus = Rhipicephalus sanguineus in vitro contact test with adult brown dog ticks; format: in vivo; details: after 48 h, dead or moribund ticks
Procedure: After the solvent has evaporated off, the tubes are populated with 5-10 adult dog ticks (Rhipicephalus sanguineus), sealed with a perforated plastic lid and incubated in a horizontal position in the dark at room temperature and ambient humidity. After 48 h, efficacy is determined. To this end, the ticks are knocked to the base of the tube and incubated on a hotplate at 45-50° C. for not more than 5 min. Ticks which remain motionless on the base or move in such an uncoordinated manner that they are unable to deliberately avoid the heat by climbing upwards are considered to be dead or moribund.

[3] = logP determination by HPLC on reversed-phase column (EEC Directive 79/831 Annex V.A8); format: physicochemical
[4] = application rate 100 ppm in citrated cattle blood
[5] = application rate 5 μg/cm^2 (500 g/ha)
[6] = Table 1, HPLC C18, acetonitrile/water with formic acid
[7] = application rate 1 μg/cm^2 (100 g/ha)

SMILES | efficacy (Musca domestica; application rate 100 ppm) | efficacy (Ctenocephalides felis [1]) | efficacy (Boophilus microplus; application rate 20 μg/animal) | efficacy (Ctenocephalides felis [2]; [4]) | efficacy (Lucilia cuprina; application rate 100 ppm) | efficacy (Phaedon cochleariae; application rate 100 g/ha) | efficacy (Tetranychus urticae; application rate 100 g/ha) | efficacy (Spodoptera frugiperda; application rate 100 g/ha) | efficacy (Rhipicephalus sanguineus; [5]) | lgP [3, 6] | efficacy (Phaedon cochleariae; application rate 500 g/ha) | efficacy (Tetranychus urticae; application rate 500 g/ha) | efficacy (Spodoptera frugiperda; application rate 500 g/ha) | efficacy (Rhipicephalus sanguineus; [7]) | lgP ([3]; synthesis example) | efficacy (Musca domestica; application rate 20 ppm) | efficacy (Boophilus microplus; application rate 4 μg/animal) | efficacy (Ctenocephalides felis [2]; application rate 20 ppm in citrated cattle blood) | efficacy (Lucilia cuprina; application rate 20 ppm)
Cc1cc(C(F)(C(F)(F)F)C(F)(F)F)cc(C(F)(F)F)c1-n1cc(-c2ccc(F)c(NC(=O)c3ccncc3)c2F)cn1 [Example 25] | 100% | 100% | 100% | 100% | 100% | 100% | 100% | 100% |  |  |  |  |  |  |  |  |  |  | 
Cc1cc(C(F)(C(F)(F)F)C(F)(F)F)cc(C(F)(F)F)c1-n1cc(-c2ccc(F)c(NC(=O)c3ccc(C#N)cc3)c2)cn1 [Example 33] | 90% | 100% | 100% | 100% | 100% | 100% | 90% | 100% | 80% |  |  |  |  |  |  |  |  |  | 
Cc1cc(C(F)(C(F)(F)F)C(F)(F)F)cc(C)c1-n1cc(-c2ccc(F)c(NC(=O)c3ccc(F)cc3)c2)cn1 [Example 5] | 80% |  | 100% | 90% | 100% |  | 100% | 100% | 80% | lgP 5.07 | 100% | 100% | 100% |  |  |  |  |  | 
Cc1cc(C(F)(C(F)(F)F)C(F)(F)F)cc(C(F)(F)F)c1-n1cc(-c2ccc(F)c(NC(=O)C3CSC3)c2)cn1 [Example 66] | 100% |  | 100% | 100% | 100% | 100% | 100% | 100% | 100% |  |  |  |  |  |  |  |  |  | 
O=C(Nc1ccc(F)c(-c2cnn(-c3c(Br)cc(C(F)(C(F)(F)F)C(F)(F)F)cc3C(F)(F)F)c2)c1)c1cocn1 [Example 2-14] | 90% | 100% | 100% | 100% | 90% | 100% |  | 100% | 80% |  |  |  |  |  |  |  |  |  | 
Cc1cc(C(F)(C(F)(F)F)C(F)(F)F)cc(C(F)(F)F)c1-n1cc(-c2ccc(F)c(NC(=O)c3ccc(F)cc3)c2F)cn1 [Example 23] | 80% |  | 100% | 100% | 100% | 100% |  | 100% |  |  |  |  |  | 100% |  |  |  |  | 
Cc1cc(C(F)(C(F)(F)F)C(F)(F)F)cc(C)c1-n1cc(-c2ccc(F)c(NC(=O)c3cncnc3)c2)cn1 [Example 15] | 100% | 100% | 100% | 100% | 100% | 100% |  | 100% |  | lgP 3.95 |  |  |  |  |  |  |  |  | 
COc1cc(C(=O)Nc2cc(-c3cnn(-c4c(C)cc(C(F)(C(F)(F)F)C(F)(F)F)cc4C(F)(F)F)c3)cnc2Cl)ccc1F [Example 24] | 100% |  | 100% | 100% | 100% | 100% | 100% | 100% | 100% |  |  |  |  |  |  |  |  |  | 
Cc1cc(C(F)(C(F)(F)F)C(F)(F)F)cc(C(F)(F)F)c1-n1cc(-c2cc(NC(=O)c3cocn3)ccc2F)cn1 [Example 2-12] |  |  | 100% | 95% | 90% | 100% |  | 100% |  |  |  |  |  | 100% |  |  |  |  | 
Cc1cc(C(F)(C(F)(F)F)C(F)(F)F)cc(C)c1-n1cc(-c2cnc(Cl)c(NC(=O)c3ccc(F)cc3)c2)cn1 [Example 11] | 100% |  | 100% | 100% | 100% | 100% | 90% | 100% | 80% | lgP 5.14 |  |  |  |  |  |  |  |  | 
Cc1cc(C(F)(C(F)(F)F)C(F)(F)F)cc(C)c1-n1cc(-c2ccc(F)c(NC(=O)c3ccncn3)c2)cn1 [Example 16] | 100% |  | 100% | 100% | 95% | 100% |  | 100% | 80% | lgP 5.04 |  |  |  |  |  |  |  |  | 
Cc1cc(C(F)(C(F)(F)F)C(F)(F)F)cc(C(F)(F)F)c1-n1cc(-c2cccc(NC(=O)c3cocn3)c2F)cn1 [Example 77] | 100% |  | 100% | 100% | 100% | 100% |  | 100% |  |  |  |  |  | 100% |  |  |  |  | 
Cc1cc(C(F)(C(F)(F)F)C(F)(F)F)cc(C)c1-n1cc(-c2ccc(Cl)c(NC(=O)c3ccc(F)cc3)c2)cn1 [Example 4, N-[2-chloro-5-[1-[2,6-dimethyl-4-[1,2,2,2-tetrafluoro-1-(trifluoromethyl)ethyl]phenyl]pyrazol-4-yl]phenyl]-4-fluorobenzamide] |  |  | 100% | 100% | 100% |  | 100% | 100% | 100% | lgP 5.57 | 100% | 90% | 100% |  | 5.57 |  |  |  | 
Cc1ncc(-c2cnn(-c3c(Cl)cc(C(F)(C(F)(F)F)C(F)(F)F)cc3Cl)c2)cc1NC(=O)c1ccc(F)cc1 [Example 17] |  | 100% |  |  |  | 100% | 100% | 100% |  |  |  |  |  |  |  | 100% | 100% | 100% | 100%
Cc1cc(C(F)(C(F)(F)F)C(F)(F)F)cc(C(F)(F)F)c1-n1cc(-c2ccc(F)c(NC(=O)c3ccnc(F)c3)c2)cn1 [Example 51] | 100% | 100% | 100% | 100% | 100% | 100% | 90% | 100% |  |  |  |  |  |  |  |  |  |  | 
Cc1cnccc1C(=O)Nc1cc(-c2cnn(-c3c(C)cc(C(F)(C(F)(F)F)C(F)(F)F)cc3C(F)(F)F)c2)ccc1F [Example 54] | 100% | 100% | 100% | 100% | 100% | 100% | 100% | 100% |  |  |  |  |  |  |  |  |  |  | 
Cc1cc(C(F)(C(F)(F)F)C(F)(F)F)cc(C(F)(F)F)c1-n1cc(-c2cccc(NC(=O)c3ccncc3)c2F)cn1 [Example 68] | 100% | 100% | 100% | 100% | 100% | 100% | 100% | 100% |  |  |  |  |  |  |  |  |  |  | 
